{"source": "ChEMBL document CHEMBL5678816", "about": "“A Next-Generation TRK Kinase Inhibitor Overcomes Acquired Resistance to Prior TRK Kinase Inhibition in Patients with TRK Fusion-Positive Solid Tumors” (Cancer Discov, 2017)", "key": {"[1]": {"target": "Angiopoietin-1 receptor (Homo sapiens) (UniProt Q02763)", "test": "Inhibition of Tie2 (unknown origin) at 1 uM in presence of ATP relative to control; values are per cent of control"}, "[2]": {"tested_on": "A 172", "test": "Inhibition of cell proliferation in human A-172 cells upto 10 umol/L incubated for 72 hrs by DAPI staining based analysis", "type": "functional", "conditions": "dose <= 10.0 µmol/L"}, "[3]": {"target": "Serine/threonine-protein kinase pim-3 (Homo sapiens) (UniProt Q86V86)", "test": "Inhibition of Pim-3 (unknown origin) at 1 uM in presence of ATP relative to control; values are per cent of control"}, "[4]": {"target": "Mitogen-activated protein kinase 10 (Homo sapiens) (UniProt P53779)", "sequence (P53779 whole entry)": "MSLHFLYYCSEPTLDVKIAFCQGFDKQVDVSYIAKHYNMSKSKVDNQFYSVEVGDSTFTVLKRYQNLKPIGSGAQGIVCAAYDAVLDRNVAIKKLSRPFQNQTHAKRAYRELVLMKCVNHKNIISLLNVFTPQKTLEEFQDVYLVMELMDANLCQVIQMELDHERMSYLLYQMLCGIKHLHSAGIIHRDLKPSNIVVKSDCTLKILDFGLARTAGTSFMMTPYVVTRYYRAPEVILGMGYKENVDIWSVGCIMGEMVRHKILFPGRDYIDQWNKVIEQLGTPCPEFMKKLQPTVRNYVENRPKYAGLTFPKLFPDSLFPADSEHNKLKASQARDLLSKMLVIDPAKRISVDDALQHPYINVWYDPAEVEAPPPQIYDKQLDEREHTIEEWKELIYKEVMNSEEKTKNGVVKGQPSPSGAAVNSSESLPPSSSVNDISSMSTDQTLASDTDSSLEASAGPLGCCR", "test": "Inhibition of JNK3 (unknown origin) at 1 uM in presence of ATP relative to control; values are per cent of control"}, "[5]": {"target": "Mitogen-activated protein kinase kinase kinase 5 (Homo sapiens) (UniProt Q99683)", "sequence (Q99683 whole entry)": "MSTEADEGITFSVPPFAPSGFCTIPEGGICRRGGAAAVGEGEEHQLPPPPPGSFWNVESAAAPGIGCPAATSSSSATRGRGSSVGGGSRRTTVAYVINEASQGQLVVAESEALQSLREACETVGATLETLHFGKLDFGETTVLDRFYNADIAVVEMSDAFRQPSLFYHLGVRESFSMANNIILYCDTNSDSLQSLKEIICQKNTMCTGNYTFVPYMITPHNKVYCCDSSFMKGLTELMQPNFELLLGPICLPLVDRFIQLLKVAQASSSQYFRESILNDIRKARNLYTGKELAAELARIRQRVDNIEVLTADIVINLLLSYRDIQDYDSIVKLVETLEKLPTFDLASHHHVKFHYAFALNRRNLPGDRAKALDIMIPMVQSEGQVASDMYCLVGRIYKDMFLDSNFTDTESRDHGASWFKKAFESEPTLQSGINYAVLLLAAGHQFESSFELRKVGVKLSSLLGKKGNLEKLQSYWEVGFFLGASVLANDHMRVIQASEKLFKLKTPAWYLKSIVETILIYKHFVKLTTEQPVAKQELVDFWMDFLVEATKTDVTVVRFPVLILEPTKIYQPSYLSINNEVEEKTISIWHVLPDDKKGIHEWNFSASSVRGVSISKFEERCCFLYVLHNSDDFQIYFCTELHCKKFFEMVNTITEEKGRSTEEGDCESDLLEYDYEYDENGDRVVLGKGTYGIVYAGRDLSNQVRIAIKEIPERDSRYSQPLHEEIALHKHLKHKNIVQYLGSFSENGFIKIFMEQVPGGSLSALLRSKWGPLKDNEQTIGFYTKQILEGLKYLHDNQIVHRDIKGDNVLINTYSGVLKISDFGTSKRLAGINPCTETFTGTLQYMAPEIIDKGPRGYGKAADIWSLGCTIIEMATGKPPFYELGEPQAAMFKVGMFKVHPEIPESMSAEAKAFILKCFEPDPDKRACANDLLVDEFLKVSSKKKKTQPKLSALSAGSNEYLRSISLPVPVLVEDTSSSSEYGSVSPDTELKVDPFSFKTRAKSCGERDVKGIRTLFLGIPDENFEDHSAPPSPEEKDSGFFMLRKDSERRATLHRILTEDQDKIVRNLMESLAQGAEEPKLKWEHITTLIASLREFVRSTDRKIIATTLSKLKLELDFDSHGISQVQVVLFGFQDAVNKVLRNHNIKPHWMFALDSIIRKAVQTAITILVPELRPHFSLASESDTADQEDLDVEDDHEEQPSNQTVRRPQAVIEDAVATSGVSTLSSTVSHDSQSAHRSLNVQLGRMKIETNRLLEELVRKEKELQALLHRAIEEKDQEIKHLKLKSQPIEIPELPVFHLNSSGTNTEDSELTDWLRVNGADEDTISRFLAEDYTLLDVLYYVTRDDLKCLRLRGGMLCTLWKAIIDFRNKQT", "test": "Inhibition of MAP3K5 (unknown origin) at 1 uM in presence of ATP relative to control; values are per cent of control"}, "[6]": {"target": "Mitogen-activated protein kinase kinase kinase 9 (Homo sapiens) (UniProt P80192)", "test": "Inhibition of MLK1 (unknown origin) at 1 uM in presence of ATP relative to control; values are per cent of control"}, "[7]": {"tested_on": "T-24", "test": "Inhibition of cell proliferation in human T24 cells upto 10 umol/L incubated for 72 hrs by DAPI staining based analysis", "type": "functional", "conditions": "dose <= 10.0 µmol/L"}, "[8]": {"target": "Ephrin type-A receptor 5 (Homo sapiens) (UniProt P54756)", "test": "Inhibition of EphA5 (unknown origin) at 1 uM in presence of ATP relative to control; values are per cent of control"}, "[9]": {"target": "Receptor-type tyrosine-protein kinase FLT3 (Homo sapiens) (UniProt P36888)", "test": "Inhibition of FLt3 (unknown origin) at 1 uM in presence of ATP relative to control; values are per cent of control"}, "[10]": {"tested_on": "HT-1376", "test": "Inhibition of cell proliferation in human HT-1376 cells upto 10 umol/L incubated for 72 hrs by DAPI staining based analysis", "type": "functional", "conditions": "dose <= 10.0 µmol/L"}, "[11]": {"target": "Dual specificity protein kinase CLK2 (Homo sapiens) (UniProt P49760)", "sequence (P49760 whole entry, looked up)": "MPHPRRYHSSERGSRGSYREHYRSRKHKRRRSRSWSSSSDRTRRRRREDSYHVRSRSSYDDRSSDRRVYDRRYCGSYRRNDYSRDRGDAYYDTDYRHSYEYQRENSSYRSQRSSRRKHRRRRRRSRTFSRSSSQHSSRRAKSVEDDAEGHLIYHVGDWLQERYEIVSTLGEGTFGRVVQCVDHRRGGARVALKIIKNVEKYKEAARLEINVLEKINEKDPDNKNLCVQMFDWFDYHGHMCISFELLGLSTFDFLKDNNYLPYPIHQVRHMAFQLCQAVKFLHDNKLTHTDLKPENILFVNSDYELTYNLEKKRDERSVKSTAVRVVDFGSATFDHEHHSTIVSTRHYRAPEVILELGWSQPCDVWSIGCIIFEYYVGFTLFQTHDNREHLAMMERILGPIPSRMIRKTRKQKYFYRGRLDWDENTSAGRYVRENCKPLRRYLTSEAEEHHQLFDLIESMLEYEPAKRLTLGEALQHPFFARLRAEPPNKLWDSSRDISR", "test": "Inhibition of CLK2 (unknown origin) at 1 uM in presence of ATP relative to control; values are per cent of control"}, "[12]": {"target": "CDK7/Cyclin H/MNAT1 (Homo sapiens) (UniProt P51946+P50613+P51948)", "test": "Inhibition of CDK7/cyclinH/MAT1 (unknown origin) at 1 uM in presence of ATP relative to control; values are per cent of control"}, "[13]": {"tested_on": "T47D", "test": "Inhibition of cell proliferation in human T47D cells upto 10 umol/L incubated for 72 hrs by DAPI staining based analysis", "type": "functional", "conditions": "dose <= 10.0 µmol/L"}, "[14]": {"target": "Platelet-derived growth factor receptor beta (Homo sapiens) (UniProt P09619)", "test": "Inhibition of PDGFRbeta (unknown origin) at 1 uM in presence of ATP relative to control; values are per cent of control"}, "[15]": {"target": "cGMP-dependent protein kinase 1 (Homo sapiens) (UniProt Q13976)", "sequence (Q13976 whole entry)": "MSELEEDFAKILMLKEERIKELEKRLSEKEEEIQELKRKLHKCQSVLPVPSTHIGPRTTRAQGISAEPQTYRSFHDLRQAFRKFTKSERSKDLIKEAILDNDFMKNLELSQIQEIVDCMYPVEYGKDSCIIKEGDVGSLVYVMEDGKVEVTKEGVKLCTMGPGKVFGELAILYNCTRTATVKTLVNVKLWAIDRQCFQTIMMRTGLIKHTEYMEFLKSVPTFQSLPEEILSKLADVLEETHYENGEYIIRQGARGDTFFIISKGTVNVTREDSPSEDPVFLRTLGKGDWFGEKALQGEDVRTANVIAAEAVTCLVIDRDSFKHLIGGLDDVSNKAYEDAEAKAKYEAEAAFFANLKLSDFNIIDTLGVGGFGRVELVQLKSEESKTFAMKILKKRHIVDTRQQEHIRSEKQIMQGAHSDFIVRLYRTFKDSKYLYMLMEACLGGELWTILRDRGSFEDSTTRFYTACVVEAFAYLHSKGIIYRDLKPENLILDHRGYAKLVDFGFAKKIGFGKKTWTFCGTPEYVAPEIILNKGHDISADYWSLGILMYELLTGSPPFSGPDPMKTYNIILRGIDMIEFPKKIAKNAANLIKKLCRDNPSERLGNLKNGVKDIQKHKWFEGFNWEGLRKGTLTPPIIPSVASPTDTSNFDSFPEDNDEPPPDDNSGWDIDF", "test": "Inhibition of PRKG1beta (unknown origin) at 1 uM in presence of ATP relative to control; values are per cent of control"}, "[16]": {"target": "Discoidin domain-containing receptor 2 (Homo sapiens) (UniProt Q16832)", "sequence (Q16832 whole entry, the tested form may be a part)": "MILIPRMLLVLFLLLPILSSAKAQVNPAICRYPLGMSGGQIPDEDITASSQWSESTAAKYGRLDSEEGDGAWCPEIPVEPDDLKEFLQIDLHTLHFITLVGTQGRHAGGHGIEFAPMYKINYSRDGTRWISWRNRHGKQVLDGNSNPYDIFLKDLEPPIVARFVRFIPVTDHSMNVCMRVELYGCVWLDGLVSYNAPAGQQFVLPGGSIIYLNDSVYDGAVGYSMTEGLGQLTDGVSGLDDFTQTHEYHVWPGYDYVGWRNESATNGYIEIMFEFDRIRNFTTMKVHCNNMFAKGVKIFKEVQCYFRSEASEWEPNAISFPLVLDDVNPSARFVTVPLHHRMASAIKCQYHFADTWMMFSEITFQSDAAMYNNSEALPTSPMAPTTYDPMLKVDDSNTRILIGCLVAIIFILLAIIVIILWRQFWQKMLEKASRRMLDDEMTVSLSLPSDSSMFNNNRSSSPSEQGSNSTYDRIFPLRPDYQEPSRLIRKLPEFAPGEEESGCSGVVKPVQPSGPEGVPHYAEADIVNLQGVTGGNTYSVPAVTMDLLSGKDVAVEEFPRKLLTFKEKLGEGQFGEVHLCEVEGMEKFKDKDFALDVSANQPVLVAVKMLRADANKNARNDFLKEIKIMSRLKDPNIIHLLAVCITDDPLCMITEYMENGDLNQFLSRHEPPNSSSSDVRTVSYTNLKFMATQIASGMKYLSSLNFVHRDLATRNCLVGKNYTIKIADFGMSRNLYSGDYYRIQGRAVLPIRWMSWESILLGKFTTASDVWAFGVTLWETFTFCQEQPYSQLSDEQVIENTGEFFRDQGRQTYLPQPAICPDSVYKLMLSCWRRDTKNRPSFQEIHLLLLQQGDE", "test": "Inhibition of DDR2 (unknown origin) at 1 uM in presence of ATP relative to control; values are per cent of control"}, "[17]": {"target": "Testis-specific serine/threonine-protein kinase 1 (Homo sapiens) (UniProt Q9BXA7)", "sequence (Q9BXA7 whole entry)": "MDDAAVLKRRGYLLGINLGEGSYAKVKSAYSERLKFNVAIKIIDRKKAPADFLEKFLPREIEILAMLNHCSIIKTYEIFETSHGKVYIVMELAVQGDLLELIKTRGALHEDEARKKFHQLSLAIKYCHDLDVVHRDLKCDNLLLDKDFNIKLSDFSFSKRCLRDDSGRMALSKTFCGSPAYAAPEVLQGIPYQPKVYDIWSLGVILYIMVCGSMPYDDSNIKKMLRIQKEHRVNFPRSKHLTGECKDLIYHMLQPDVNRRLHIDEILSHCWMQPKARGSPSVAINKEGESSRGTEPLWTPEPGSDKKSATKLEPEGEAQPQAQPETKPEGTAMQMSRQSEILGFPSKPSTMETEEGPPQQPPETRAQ", "test": "Inhibition of TSSK1 (unknown origin) at 1 uM in presence of ATP relative to control; values are per cent of control"}, "[18]": {"tested_on": "C32", "test": "Inhibition of cell proliferation in human C32 cells upto 10 umol/L incubated for 72 hrs by DAPI staining based analysis", "type": "functional", "conditions": "dose <= 10.0 µmol/L"}, "[19]": {"target": "Serine/threonine-protein kinase pim-2 (Homo sapiens) (UniProt Q9P1W9)", "sequence (Q9P1W9 whole entry, looked up)": "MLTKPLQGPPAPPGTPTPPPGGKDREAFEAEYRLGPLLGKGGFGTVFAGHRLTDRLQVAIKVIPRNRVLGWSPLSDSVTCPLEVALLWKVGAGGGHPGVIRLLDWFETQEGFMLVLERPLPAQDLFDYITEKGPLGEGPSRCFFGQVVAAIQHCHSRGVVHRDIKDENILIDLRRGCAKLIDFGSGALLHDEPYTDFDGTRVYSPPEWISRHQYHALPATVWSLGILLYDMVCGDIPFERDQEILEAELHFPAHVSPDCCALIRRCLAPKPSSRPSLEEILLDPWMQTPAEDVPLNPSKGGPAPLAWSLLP", "test": "Inhibition of Pim-2 (unknown origin) at 1 uM in presence of ATP relative to control; values are per cent of control"}, "[20]": {"target": "CDK6/cyclin D3 (Homo sapiens) (UniProt P30281+Q00534)", "test": "Inhibition of CDK6/cyclinD3 (unknown origin) at 1 uM in presence of ATP relative to control; values are per cent of control"}, "[21]": {"target": "Cyclin-dependent kinase 5/CDK5 activator 1 (Homo sapiens) (UniProt Q00535+Q15078)", "test": "Inhibition of CDK5/p25 (unknown origin) at 1 uM in presence of ATP relative to control; values are per cent of control"}, "[22]": {"target": "Tyrosine-protein kinase TXK (Homo sapiens) (UniProt P42681)", "test": "Inhibition of Txk (unknown origin) at 1 uM in presence of ATP relative to control"}, "[23]": {"test": "Toxicity in nu/nu NCr mouse xenografted with human KM12 cells harboring TPM3-TRKA fusion protein assessed as body weight loss at 30 to 300 mg/kg, po administered twice daily for 11 days relative to control", "type": "organism-based", "conditions": "in vivo, 264 h, dose 30-300 mg/kg, time 11 day"}, "[24]": {"test": "AUC in pediatric patient with recurrent ETV6-NTRK3-rearranged infantile fibrosarcoma at 20 mg administered twice a day as liquid formulation for 1 day by LC-MS/MS analysis", "type": "ADME", "conditions": "human, in vivo"}, "[25]": {"target": "Calcium/calmodulin-dependent protein kinase type 1D (Homo sapiens) (UniProt Q8IU85)", "test": "Inhibition of CAMK1d (unknown origin) at 1 uM in presence of ATP relative to control; values are per cent of control"}, "[26]": {"tested_on": "SH-4", "test": "Inhibition of cell proliferation in human SH-4 cells upto 10 umol/L incubated for 72 hrs by DAPI staining based analysis", "type": "functional", "conditions": "dose <= 10.0 µmol/L"}, "[27]": {"target": "Ephrin type-A receptor 3 (Homo sapiens) (UniProt P29320)", "test": "Inhibition of EphA3 (unknown origin) at 1 uM in presence of ATP relative to control; values are per cent of control"}, "[28]": {"target": "Tyrosine-protein kinase FRK (Homo sapiens) (UniProt P42685)", "test": "Inhibition of PTK5 (unknown origin) at 1 uM in presence of ATP relative to control; values are per cent of control"}}, "note": "Active and inactive are the calls of the source. The rule behind the calls is not given here.", "data": [{"compound": "C[C@@H]1CCc2ncc(F)cc2[C@H]2CCCN2c2ccn3ncc(c3n2)C(=O)N1", "note": "[SELITRECTINIB]", "values": [{"measurement": "residual activity", "setting": "[1]", "result": 119, "unit": "%"}, {"measurement": "inhibition", "setting": "[2]", "result": "inactive"}, {"measurement": "residual activity", "setting": "[3]", "result": 103, "unit": "%"}, {"measurement": "residual activity", "setting": "[4]", "result": 109, "unit": "%"}, {"measurement": "residual activity", "setting": "[5]", "result": 106, "unit": "%"}, {"measurement": "residual activity", "setting": "[6]", "result": 96.5, "unit": "%"}, {"measurement": "inhibition", "setting": "[7]", "result": "inactive"}, {"measurement": "residual activity", "setting": "[8]", "result": 90, "unit": "%"}, {"measurement": "residual activity", "setting": "[9]", "result": 85.5, "unit": "%"}, {"measurement": "inhibition", "setting": "[10]", "result": "inactive"}, {"measurement": "residual activity", "setting": "[11]", "result": 96.5, "unit": "%"}, {"measurement": "residual activity", "setting": "[12]", "result": 108, "unit": "%"}, {"measurement": "inhibition", "setting": "[13]", "result": "inactive"}, {"measurement": "residual activity", "setting": "[14]", "result": 112, "unit": "%"}, {"measurement": "residual activity", "setting": "[15]", "result": 114, "unit": "%"}, {"measurement": "residual activity", "setting": "[16]", "result": 93, "unit": "%"}, {"measurement": "residual activity", "setting": "[17]", "result": 99, "unit": "%"}, {"measurement": "inhibition", "setting": "[18]", "result": "inactive"}, {"measurement": "residual activity", "setting": "[19]", "result": 120, "unit": "%"}, {"measurement": "residual activity", "setting": "[20]", "result": 110, "unit": "%"}, {"measurement": "residual activity", "setting": "[21]", "result": 98.5, "unit": "%"}, {"measurement": "inhibition", "setting": "[22]", "result": 14, "unit": "%"}, {"measurement": "Activity", "setting": "[23]", "result": "< 5", "unit": "%"}, {"measurement": "AUC at 24 h", "setting": "[24]", "result": 615, "unit": "ng·h/mL"}, {"measurement": "residual activity", "setting": "[25]", "result": 116, "unit": "%"}, {"measurement": "inhibition", "setting": "[26]", "result": "inactive"}, {"measurement": "residual activity", "setting": "[27]", "result": 104, "unit": "%"}, {"measurement": "residual activity", "setting": "[28]", "result": 87.5, "unit": "%"}]}]}
